Source: the NIST ThermoML archive (doi:10.1016/j.fluid.2014.05.034)
Numbers after ± are expanded uncertainties.

What was measured:
[1] = for Normal melting temperature: Crystal; for mass density: 101.33 kPa, Liquid, Vibrating tube method
[2] = Molar enthalpy of transition or fusion; details: Crystal; DSC

SMILES | Normal melting temperature ([1]; visual observation) | further results
CC[N+]1(C)CCCCC1.O=S(=O)([N-]S(=O)(=O)C(F)(F)F)C(F)(F)F | 82.8 ± 1.1 °C | –
CCCCn1cc[n+](C)c1.N#CC1=NC(C(F)(F)F)=NC1=C=[N-] | – | mass density ([1]; 298.15 K): 1199.65 ± 5 kg/m3
CCCCCC[n+]1cccc2ccccc21.O=S(=O)([N-]S(=O)(=O)C(F)(F)F)C(F)(F)F [1-hexylquinolinium bis(trifluoromethylsulfonyl)amide] | 45 ± 1.1 °C | –
OCCc1ccccc1 [2-phenylethanol] | – | mass density ([1]; 293.15 K): 1019 ± 1 kg/m3
CCCCCC[n+]1ccc2ccccc2c1.O=S(=O)([N-]S(=O)(=O)C(F)(F)F)C(F)(F)F [N-hexylisoquinolinium bis(trifluoromethylsulfonyl)imide] | 55.2 ± 1.1 °C | –
C[n+]1ccn(CC#N)c1.N#Cc1nc(C(F)(F)F)[n-]c1C#N | 93.0 ± 1.1 °C | Molar enthalpy of transition or fusion [2]: 7.36 ± 0.213 kcal/mol; Normal melting temperature ([1]; DTA): 92.7 ± 0.5 °C
